Results from ChEMBL document CHEMBL1201862, “PubChem BioAssay data set” (2004).
Active and inactive are the calls of the source.

Tests used:
[1] = biological target: Voltage-dependent T-type calcium channel subunit alpha-1H (Homo sapiens, UniProt O95180); format: functional;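 further: channel activity triggered by adding a high calcium stimulation buffer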
[2] = biological target: Potassium voltage-gated channel subfamily KQT member 2 (Rattus norvegicus, UniProt O88943); assay: KCNQ2 potassium channel inhibitors, dose response, cell-based, automated electrophysiology, set II, rat KCNQ2 (AID 588637); format: functional
Chain of Potassium voltage-gated channel subfamily KQT member 2 (O88943 whole entry): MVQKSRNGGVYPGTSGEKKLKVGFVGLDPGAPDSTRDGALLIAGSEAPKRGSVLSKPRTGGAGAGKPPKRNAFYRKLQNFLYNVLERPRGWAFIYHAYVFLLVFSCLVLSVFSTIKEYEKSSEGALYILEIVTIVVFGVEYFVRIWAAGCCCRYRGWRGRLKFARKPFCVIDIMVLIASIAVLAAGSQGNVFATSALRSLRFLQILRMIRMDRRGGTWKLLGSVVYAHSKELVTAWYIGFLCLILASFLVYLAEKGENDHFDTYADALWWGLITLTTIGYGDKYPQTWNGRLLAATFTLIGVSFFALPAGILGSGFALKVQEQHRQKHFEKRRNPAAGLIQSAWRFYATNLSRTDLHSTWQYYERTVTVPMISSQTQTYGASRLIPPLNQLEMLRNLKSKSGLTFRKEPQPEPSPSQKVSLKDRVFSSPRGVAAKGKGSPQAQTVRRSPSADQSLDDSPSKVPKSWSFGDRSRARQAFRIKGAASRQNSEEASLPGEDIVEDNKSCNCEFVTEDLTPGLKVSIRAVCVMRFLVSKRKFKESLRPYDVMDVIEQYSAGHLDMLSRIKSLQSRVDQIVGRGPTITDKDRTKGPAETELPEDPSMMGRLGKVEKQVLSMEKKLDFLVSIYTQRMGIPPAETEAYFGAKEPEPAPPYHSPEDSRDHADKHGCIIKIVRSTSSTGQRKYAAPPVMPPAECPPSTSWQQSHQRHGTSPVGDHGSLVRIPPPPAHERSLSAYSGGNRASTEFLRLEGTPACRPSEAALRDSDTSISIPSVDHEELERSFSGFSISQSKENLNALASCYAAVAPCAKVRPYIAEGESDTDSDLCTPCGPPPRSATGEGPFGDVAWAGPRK

[3] = biological target: Luciferin 4-monooxygenase (Photinus pyralis, UniProt P08659); assay: firefly luciferase enzyme inhibitors, dose response, biochemical, luminescence (AID 1891)
Chain of Luciferin 4-monooxygenase (P08659 whole entry, the tested form may be a part): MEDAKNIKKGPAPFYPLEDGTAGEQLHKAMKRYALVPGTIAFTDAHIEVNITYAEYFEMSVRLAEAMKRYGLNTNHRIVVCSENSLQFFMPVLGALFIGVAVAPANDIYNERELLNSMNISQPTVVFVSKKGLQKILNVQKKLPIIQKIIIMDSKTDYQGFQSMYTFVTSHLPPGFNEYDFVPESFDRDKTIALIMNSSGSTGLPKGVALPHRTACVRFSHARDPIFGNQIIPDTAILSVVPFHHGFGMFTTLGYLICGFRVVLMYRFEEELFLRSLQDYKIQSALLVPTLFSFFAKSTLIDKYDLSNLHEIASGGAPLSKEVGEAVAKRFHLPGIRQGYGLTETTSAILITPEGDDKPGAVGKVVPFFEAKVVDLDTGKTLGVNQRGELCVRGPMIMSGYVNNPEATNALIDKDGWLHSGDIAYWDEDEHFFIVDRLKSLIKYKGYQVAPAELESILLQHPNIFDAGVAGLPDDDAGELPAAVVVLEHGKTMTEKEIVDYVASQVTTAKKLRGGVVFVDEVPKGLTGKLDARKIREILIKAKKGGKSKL

[4] = CAL PDZ domain peptide-binding inhibitors, dose response, biochemical, fluorescence polarization, untagged CAL PDZ, cherry-pick, set 2 (AID 602254); format: functional
[5] = Luminescence Cell-Based Dose Confirmation HTS to Identify Inhibitors of Platelet Dense Granule Release. [Related pubchem assays: 1663 (Primary HTS), 1678 (Summary of Project)]; format: functional
[6] = biological target: Heat shock protein HSP 90-alpha (Homo sapiens, UniProt P07900); format: functional, organism-based
Prothrombin = Prothrombin (Bos taurus, UniProt P00735); assay: thrombin inhibition, dose response, biochemical, fluorescence polarization, uHTS hits (AID 602369); format: functional
[7] = biological target: T1, DNA repair protein RAD52 homolog (Homo sapiens, UniProt P43351); format: functional, biochemical
T1 sequence (P43351 whole entry): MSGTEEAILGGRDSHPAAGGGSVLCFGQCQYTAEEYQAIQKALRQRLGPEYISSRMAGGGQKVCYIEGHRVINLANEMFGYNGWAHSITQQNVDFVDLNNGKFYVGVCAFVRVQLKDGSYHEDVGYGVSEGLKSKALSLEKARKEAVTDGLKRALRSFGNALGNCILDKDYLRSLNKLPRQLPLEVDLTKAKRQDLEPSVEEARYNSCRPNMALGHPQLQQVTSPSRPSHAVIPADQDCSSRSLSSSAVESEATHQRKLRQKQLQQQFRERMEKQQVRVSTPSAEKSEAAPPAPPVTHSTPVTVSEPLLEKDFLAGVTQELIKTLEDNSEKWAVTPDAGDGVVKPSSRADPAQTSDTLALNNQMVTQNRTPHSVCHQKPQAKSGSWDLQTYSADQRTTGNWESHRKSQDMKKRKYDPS

[8] = biological target: 26S proteasome non-ATPase regulatory subunit 14 (Homo sapiens, UniProt O00487); assay: inhibition of proteasome subunit RPN11 – biochemical, fluorescence polarization, uHTS hits, confirmation (AID 602368); format: functional
Chain of 26S proteasome non-ATPase regulatory subunit 14 (O00487 whole entry): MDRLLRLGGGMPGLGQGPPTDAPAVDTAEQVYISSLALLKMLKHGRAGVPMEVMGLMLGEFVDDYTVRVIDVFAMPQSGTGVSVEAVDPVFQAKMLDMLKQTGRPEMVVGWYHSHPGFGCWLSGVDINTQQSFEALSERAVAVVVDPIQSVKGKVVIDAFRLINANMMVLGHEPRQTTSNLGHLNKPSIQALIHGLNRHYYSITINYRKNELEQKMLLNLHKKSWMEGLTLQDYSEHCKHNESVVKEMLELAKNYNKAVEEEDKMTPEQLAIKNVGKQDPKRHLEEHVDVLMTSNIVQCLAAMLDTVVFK

[9] = biological target: 72 kDa type IV collagenase (Homo sapiens, UniProt P08253); assay: Dose Response validation of uHTS RPN11 inhibitor hits using a MMP-2 Fluorescence assay.; format: functional
Chain of 72 kDa type IV collagenase (P08253 whole entry): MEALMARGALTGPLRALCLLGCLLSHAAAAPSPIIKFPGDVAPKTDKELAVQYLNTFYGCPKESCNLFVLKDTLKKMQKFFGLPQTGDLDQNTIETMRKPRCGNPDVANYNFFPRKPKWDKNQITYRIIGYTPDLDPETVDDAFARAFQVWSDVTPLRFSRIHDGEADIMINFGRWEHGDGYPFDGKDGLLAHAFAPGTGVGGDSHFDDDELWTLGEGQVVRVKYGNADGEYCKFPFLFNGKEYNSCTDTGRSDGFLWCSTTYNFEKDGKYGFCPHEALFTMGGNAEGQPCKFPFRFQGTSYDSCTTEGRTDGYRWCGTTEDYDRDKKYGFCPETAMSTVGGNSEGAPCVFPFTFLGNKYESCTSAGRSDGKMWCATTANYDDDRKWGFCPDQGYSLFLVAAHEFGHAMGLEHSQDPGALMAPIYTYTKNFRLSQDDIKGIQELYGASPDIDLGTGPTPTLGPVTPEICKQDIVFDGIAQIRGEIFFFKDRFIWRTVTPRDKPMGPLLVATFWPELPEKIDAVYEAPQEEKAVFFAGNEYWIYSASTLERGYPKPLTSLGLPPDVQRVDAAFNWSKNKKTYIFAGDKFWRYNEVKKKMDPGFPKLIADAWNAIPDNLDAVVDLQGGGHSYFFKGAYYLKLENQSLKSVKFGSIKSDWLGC

[10] = biological target: T2, Rac GTPase-activating protein 1 (Homo sapiens, UniProt Q9H0H5); assay: MgcRacGAP GTPase-activating activity inhibitors, confirmation, biochemical, ADP Hunter fluorescence, primary and confirmatory (AID 624330); format: functional
T2 sequence (Q9H0H5 whole entry): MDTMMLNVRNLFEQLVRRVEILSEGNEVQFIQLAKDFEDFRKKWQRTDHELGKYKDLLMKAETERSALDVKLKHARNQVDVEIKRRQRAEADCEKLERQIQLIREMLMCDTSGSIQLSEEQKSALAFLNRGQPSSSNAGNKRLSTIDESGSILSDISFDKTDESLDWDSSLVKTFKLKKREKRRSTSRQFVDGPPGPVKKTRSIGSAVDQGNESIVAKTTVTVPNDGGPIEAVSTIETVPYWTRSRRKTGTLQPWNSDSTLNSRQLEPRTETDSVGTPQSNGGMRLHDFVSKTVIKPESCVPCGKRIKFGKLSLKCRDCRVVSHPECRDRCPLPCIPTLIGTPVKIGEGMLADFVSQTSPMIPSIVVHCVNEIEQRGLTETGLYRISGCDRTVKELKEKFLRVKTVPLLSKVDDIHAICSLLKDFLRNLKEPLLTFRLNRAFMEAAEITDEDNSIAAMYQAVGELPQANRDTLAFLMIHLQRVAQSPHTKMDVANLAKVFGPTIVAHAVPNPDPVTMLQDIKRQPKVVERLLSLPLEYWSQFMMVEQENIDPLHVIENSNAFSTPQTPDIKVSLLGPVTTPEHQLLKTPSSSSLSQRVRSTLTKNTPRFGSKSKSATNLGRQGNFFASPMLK

[11] = HeLa cell cytotoxicity, dose response, cytotoxicity control for MgcRacGAP inhibitor project (AID 624300); format: functional
Melanocortin receptor 4 [12] = biological target: T3, Melanocortin receptor 4 (Homo sapiens, UniProt P32245); assay: MC4R antagonist potency on cAMP, dose response, cell-based, TR-FRET, biased antagonists (AID 602298); format: functional;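 further: antagonist potency against agonist-stimulated cAMP production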
T3 sequence (P32245 whole entry): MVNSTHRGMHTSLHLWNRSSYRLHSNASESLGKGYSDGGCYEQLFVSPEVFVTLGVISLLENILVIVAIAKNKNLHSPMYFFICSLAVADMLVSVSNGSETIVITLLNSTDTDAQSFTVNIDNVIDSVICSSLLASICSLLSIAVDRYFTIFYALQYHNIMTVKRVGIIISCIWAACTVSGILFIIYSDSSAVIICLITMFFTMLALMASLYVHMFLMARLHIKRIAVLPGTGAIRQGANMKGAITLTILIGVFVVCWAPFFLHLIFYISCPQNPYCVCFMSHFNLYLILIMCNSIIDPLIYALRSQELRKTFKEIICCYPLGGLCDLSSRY

[13] = nonselective inhibitors of cellular cAMP signaling, dose response, counter-screen for MC4R biased antagonist project, cell-based, TR-FRET cAMP detection (AID 602305); format: functional;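 further: U2OS cells stimulated with forskolin near its EC80 as the cAMP inducer; potency is for inhibition of forskolin-stimulated cAMP signaling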
Melanocortin receptor 4 [14] = biological target: T3, Melanocortin receptor 4; format: functional, cell-based
[15] = biological target: T4, Apoptotic protease-activating factor 1 (Homo sapiens, UniProt O14727); assay: SAR analysis of small molecule Activators of Apaf-1 in a Fluorescent assay.; format: functional; details: read-out: EC50_Mean;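 further: caspase-3 cleavage of fluorogenic Rh110 DEVD substrate downstream of apoptosome activation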
T4 sequence (O14727 whole entry): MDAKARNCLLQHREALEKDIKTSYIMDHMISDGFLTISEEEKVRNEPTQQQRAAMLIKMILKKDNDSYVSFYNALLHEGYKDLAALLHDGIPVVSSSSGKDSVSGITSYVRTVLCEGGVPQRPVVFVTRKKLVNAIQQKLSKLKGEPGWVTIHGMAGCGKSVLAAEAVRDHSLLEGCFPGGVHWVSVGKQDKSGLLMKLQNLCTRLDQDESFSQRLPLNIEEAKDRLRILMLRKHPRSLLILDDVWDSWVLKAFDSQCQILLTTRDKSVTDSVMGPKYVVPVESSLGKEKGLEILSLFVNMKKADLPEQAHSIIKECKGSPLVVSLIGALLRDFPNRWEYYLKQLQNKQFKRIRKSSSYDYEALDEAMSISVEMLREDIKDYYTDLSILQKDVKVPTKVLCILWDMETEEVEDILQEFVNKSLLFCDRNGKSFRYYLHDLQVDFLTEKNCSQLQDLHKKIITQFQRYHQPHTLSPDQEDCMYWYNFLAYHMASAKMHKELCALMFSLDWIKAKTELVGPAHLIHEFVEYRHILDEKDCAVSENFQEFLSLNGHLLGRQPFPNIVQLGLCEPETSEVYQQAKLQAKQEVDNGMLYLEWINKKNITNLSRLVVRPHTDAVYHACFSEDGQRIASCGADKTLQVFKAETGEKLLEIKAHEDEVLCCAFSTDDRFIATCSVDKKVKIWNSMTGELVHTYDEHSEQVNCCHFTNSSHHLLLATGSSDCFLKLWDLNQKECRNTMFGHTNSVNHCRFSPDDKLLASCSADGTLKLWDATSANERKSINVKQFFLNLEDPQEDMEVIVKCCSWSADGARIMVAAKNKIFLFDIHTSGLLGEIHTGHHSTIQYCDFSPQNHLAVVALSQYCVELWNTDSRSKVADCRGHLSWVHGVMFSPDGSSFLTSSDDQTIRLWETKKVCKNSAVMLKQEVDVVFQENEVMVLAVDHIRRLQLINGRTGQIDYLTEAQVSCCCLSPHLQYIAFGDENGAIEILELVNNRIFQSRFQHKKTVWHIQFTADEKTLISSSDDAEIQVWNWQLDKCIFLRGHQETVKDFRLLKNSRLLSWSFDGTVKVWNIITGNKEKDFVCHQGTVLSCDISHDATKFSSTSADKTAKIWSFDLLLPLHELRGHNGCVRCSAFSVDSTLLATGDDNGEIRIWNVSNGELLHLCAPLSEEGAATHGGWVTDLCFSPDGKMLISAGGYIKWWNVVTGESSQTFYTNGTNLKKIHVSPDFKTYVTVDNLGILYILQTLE

Chain of Voltage-dependent T-type calcium channel subunit alpha-1H (O95180 whole entry): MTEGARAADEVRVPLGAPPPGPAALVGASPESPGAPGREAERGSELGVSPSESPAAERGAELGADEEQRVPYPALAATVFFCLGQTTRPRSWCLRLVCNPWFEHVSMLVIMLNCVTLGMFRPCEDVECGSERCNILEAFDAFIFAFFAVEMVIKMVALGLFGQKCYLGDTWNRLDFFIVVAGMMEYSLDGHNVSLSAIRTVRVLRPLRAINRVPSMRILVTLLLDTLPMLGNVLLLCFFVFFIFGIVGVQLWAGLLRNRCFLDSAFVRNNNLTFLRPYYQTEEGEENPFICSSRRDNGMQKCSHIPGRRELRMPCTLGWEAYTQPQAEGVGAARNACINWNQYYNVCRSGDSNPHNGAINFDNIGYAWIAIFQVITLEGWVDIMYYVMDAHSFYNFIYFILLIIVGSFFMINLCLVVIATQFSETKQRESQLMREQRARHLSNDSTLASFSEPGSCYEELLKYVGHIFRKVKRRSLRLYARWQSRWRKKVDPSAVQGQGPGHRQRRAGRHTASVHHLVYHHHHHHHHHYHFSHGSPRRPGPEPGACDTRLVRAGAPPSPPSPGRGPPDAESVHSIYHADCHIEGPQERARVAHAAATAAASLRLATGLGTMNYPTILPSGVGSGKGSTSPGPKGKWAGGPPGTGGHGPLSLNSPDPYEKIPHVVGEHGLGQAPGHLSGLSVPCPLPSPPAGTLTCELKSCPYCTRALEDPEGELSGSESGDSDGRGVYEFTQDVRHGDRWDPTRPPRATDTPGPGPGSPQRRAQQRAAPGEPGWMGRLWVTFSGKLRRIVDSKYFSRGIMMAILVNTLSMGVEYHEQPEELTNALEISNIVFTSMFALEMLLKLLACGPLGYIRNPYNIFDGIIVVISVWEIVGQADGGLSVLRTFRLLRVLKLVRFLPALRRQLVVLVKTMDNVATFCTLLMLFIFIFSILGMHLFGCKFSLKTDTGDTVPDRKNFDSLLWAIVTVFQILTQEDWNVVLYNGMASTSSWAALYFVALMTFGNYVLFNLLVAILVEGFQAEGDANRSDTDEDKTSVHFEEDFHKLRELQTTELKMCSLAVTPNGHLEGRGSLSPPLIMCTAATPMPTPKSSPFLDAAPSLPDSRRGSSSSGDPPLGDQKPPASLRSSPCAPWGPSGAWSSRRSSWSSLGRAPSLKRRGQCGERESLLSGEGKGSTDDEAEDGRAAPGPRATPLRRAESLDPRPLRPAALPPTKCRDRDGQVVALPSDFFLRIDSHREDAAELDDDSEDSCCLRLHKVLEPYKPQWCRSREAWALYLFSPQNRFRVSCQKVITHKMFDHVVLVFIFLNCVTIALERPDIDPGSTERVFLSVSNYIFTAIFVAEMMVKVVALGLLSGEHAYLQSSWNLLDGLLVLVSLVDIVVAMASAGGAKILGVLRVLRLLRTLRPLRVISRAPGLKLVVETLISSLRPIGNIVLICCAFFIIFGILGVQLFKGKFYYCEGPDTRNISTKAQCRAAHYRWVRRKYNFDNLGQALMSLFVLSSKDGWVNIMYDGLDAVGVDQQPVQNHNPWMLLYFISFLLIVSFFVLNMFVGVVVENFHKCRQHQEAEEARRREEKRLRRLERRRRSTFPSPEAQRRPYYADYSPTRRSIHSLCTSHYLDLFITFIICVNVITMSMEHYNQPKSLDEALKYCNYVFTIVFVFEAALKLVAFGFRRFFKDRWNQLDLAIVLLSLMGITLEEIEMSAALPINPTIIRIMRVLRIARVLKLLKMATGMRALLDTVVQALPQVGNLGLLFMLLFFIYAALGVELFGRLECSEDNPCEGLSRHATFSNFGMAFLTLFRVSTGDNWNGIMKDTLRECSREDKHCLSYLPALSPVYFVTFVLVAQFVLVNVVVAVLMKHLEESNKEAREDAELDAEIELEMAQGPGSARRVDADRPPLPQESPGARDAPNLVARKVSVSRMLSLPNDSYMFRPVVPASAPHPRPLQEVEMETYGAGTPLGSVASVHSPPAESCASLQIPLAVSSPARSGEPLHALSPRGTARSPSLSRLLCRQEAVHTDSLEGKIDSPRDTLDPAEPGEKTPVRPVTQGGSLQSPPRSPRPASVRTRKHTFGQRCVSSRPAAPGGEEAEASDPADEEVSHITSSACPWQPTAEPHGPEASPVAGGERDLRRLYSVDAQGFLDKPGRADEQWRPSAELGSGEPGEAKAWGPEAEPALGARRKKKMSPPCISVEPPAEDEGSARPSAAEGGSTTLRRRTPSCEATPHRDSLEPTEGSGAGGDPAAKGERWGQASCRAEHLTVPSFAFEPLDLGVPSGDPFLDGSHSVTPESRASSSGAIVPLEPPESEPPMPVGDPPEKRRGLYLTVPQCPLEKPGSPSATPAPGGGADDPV

**Q.** For CCOc1ccc(-c2nc(CSCC(=O)NC3CCCc4ccccc43)c(C)o2)cc1 (stereo unspecified), which EC50 [1] is on record?
**A.** Its EC50 is 3.26 µM (active).

**Q.** What about the IC50 [2] of the same compound?
**A.** The IC50 was 1.51 µM (active).

**Q.** Which results are given for COC(=O)c1cc(S(=O)(=O)NCCc2ccc(SC)cc2)c[nH]1?
**A.** EC50 [3]: > 112 µM (not active); AC50 [4]: 112 µM (active); EC50 [5]: > 112 µM (not active)

**Q.** What does the source list for CCCCCCCCCCCCCCCC[N+](C)(C)Cc1ccc(F)cc1?
**A.** AC50 [6]: 4.51 µM (active); IC50 (Prothrombin): 37.4 µM (active); AC50 [7]: 5.28 µM (active); IC50 [8]: 61.1 µM (active); IC50 [9]: 91.8 µM (active); IC50 [10]: 83.4 µM (active); CC50 [11]: 15.7 µM (active); IC50 (Melanocortin receptor 4 [12]): 13.7 µM (inactive); IC50 [13]: 59.8 µM (inactive); EC50 (Melanocortin receptor 4 [14]): > 89.2 µM (inactive)

**Q.** For O=C(O)c1coc(-c2ccc(-c3ccccc3)cc2)n1, which EC50 [15] is on record?
**A.** The EC50 was > 100 µM (inactive).
